Assay results reported in US5310881A, “Glycosaminoglycan-modified protein” (Seikagaku Corporation, priority 1990, dated 1994).

Test system: mouse ischemic foot edema
Assay: Effect on mouse ischemic foot edema
Format: in vivo, ddy male mouse
Conditions: given just before ischemia, HA 26.71 mg
Method: A ddy male mouse aged 8 weeks is kept in a keeping device and the right hind leg is tied around with a suture (Brain No. 2). One end of the suture is fixed while a weight of 500 g is suspended from another end of the suture. Thus, ischemia is conducted for a definite period of time. Before the ischemia and 60 minutes thereafter, the thickness of the foot-pad of the animal was measured with slide calipers. Then, the foot-pad is cut and weighed. To a control group, a physiological saline is intravenously administered immediately before the initiation of the ischemia. To test groups, specimen shown in Table 6 was administered 30 minutes before the initiation of the ischemia and immediately before the same. Each group has 5 animals. The catarase used as a specimen was originated from bovine liver. The HA-catalase used was prepared as follows. 10 mg of the HA-catalase of lot No. 120-1 was dissolved in 5.2 ml of a physiological saline and filtered through a membrane of 0.22 μm (Milex GV; mfd. by Nippon Millipore Kogyo K.K.). 1 ml portions of the filtrate were distributed to ampuls to give a preparation for injection. The preparation contained 600 U of the enzyme per ampul.
The effects were calculated in accordance with the following equations. [formula] It is believed that a sample showing A of 40 or more is effective. [formula] It is believed that a sample showing A of 60 or more is effective.

hyaluronic acid [HA]
Effect A: 22 | Effect B: 35
